Experimental data reported in article PMC3160846 (PLoS ONE, 2011).
“And” between values parts separate entries of the source, which are not always exact repeats. Equal entries are not always repeated.

Legend:
[1] = Pharmacokinetic study in rats; format: in vivo; settings: 5 mg/kg i.v.
Protocol: Male Sprague-Dawley rats weighing 300–400 g each (8–12 weeks old) were obtained from BioLASCO, Taiwan Co., Ltd., Ilan, Taiwan. Animals were surgically prepared with a jugular-vein cannula one day prior to dosing and fasted overnight (∼18–20 h) prior to dosing. Water was available ad libitum throughout the experiment. Single 5 mg/kg dose of BPR1K653, as a DMA/PEG (20/80, v/v) solution, was separately administered to groups of 3 rats each intravenously by a bolus injection via the jugular-vein cannula. At 0 (prior to dosing), 2, 5, 15 and 30 min, and at 1, 2, 4, 6, 8 and 24 h after dosing, a blood sample (0.15 mL) was collected from each animal via the jugular-vein cannula and stored in ice (0–4°C). Plasma was separated from the blood by centrifugation (14,000 g for 15 min at 4°C in a Beckman Model Allegra™ 6R centrifuge) and stored in a freezer (−20°C). All samples were analyzed for the parent drug by LC-MS/MS. LC/MS/MS conditions: The chromatographic system consisted of an Agilent 1200 series LC system and an Agilent ZORBAX Eclipse XDB-C8 column (5 µm, 3.0×150 mm) was connected to a MDS Sciex API3000 tandem mass spectrometer, which was equipped with a Turbo V™ ESI in the positive scanning mode at 600°C. Data was acquired via the multiple reactions monitoring (MRM) system. The MS/MS ion transitions were monitored at m/z of 541.4/106.4 for BPR1K653. The collision energy of 58.0 V was used for the analyst, BPR1K653. A gradient HPLC method was employed for the separation. Mobile phase A consisted of water containing 0.1% formic acid, and mobile phase B consisted of acetonitrile. The gradient profile was shown as follows (min/%B): 0.0–1.2/5, 1.3–3.9/95, 4.0–5.0/5. The flow rate was set to be 1.5 mL/min. The auto-sampler was programmed to inject 15 µL sample aliquots in every 5 min. The retention time of BPR1K653 was 2.39 min. Plasma concentration data were analyzed with non-compartmental method.

HONE-1 cells [2] = assay: Western blot of Histone H3 phosphorylation and cyclin B1, HONE-1; format: cell-based, Human; settings: HONE-1, 48 h
Protocol: Cells were lysed with ice-cold lysis buffer (10 mM Tris, 1 mM EDTA, 1 mM DTT, 60 mM KCl, 0.5% NP-40 and protease inhibitors). […] The resolved proteins were electrophoretically transferred to PVDF membranes (Amersham Life Science, Amersham, U.K.) for Western blot analysis. The membranes were blocked with 5% non-fat milk at room temperature for two hours, washed twice with TBST (1% Tween) and then incubated with either anti-phosphorylated Aurora-A/-B/-C kinase antibody (#2914S, Cell Signaling Technology, Danvers, MA), anti-Aurora-A and -B kinase antibody (#ab1287 and #ab2254, Abcam, Cambridge, MA), anti-phosphorylated Histone H3 antibody (#9701, Cell Signaling Technology, Danvers, MA), anti-Histone H3 antibody (#9715, Cell Signaling Technology, Danvers, MA), anti-Cyclin B1 antibody or anti-Actin antibody (#sc-245 and #sc-130065, Santa Cruz Biotechnology, Santa Cruz, CA) overnight at 4°C. Membranes were washed twice with TBST then subsequently incubated with a horseradish peroxidase-conjugated secondary antibody (Santa Cruz Biotechnology, Santa Cruz, CA) for 1 hour at room temperature. Immunoreactivity was detected by Enhanced Chemiluminescence (Amersham International, Buckingham, U.K.) and autoradiography. Experiments were repeated independently at least two times.

HONE-1 cells [3] = assay: Endo-replication (polyploidy), microscopy and flow cytometry, HONE-1; format: cell-based, Human; settings: HONE-1, 48 h
Protocol: Cell cycle progression was monitored using flow cytometry. After drug treatment, cells were trypsinized, washed with PBS and fixed in 80% ethanol at −20°C for 1 h. The fixed cells were stained with propidium iodide (containing RNase) at room temperature in the dark for 20 min. The DNA content was determined by a fluorescence-activated cell sorting IV flow cytometer (BD Biosciences, Franklin Lakes, NJ). For each analysis, 10,000 cells were counted and the percentage of cells in each phase was calculated using the ModFit LT software (Verity Software House, Topsham, ME). Experiments were repeated independently at least three times.

CN(C)Cc1ccccc1NC(=O)Nc1ccc(CCNc2ncnc3oc(-c4ccccc4)c(Cl)c23)cc1 [BPR1K653]
maximum plasma concentration above the in vitro kinase inhibition IC50 of Aurora-A [1]: more than 80 fold
maximum plasma concentration above the in vitro kinase inhibition IC50 of Aurora-B [1]: > 200 fold
maximum plasma concentration ([1]; at 2 min after dosing, 5 mg/kg): 10 µM and 5463 ng/mL
AUC(0-inf) ([1]; male, Sprague-Dawley, rat, plasma, iv, read-out: Area under the curve (AUC(0-inf))): 1750 ng·h/mL
half-life ([1]; male, Sprague-Dawley, rat, plasma, iv, read-out: Plasma half life (t1/2) (converted)): 3.9 h
clearance ([1]; male, Sprague-Dawley, rat, plasma, iv, read-out: Total body clearance (CL)): 49.3 mL/min/kg
Vd ([1]; male, Sprague-Dawley, rat, plasma, iv, read-out: Volume of distribution at the steady state (Vss)): 10.6 ± 5.1 L/kg
concentration at 24 h ([1]; male, Sprague-Dawley, rat, plasma, iv, 5 mg/kg, read-out: estimated plasma concentration 24 h after dosing): 3.9 nM and 2.1 ng/mL
phosphorylation of Histone H3 and expression of cyclin B1 (HONE-1 cells [2]): decreased
formation of polyploidy (populations >4N) (HONE-1 cells [3]): promoted the formation of polyploidy
